B1: Thioredoxin: thiol-containing peptide; human Thioredoxin purified from CD4+T MP6 cells, compared to E. coli Thioredoxin from Sigma-Aldrich (protein, UniProt P10599 2-105, looked up)
Thioredoxin: VKQIESKTAFQEALDAAGDKLVVVDFSATWCGPCKMIKPFFHSLSEKYSNVIFLEVDVDDCQDVASECEVKCMPTFQFFKKGQKVGEFSGANKEKLEATINELV

How the values were obtained:
es-LAPase = es-LAPase enzyme kinetic inhibition assay (1-leucine-β-naphthylamide substrate); type: biochemical, human; conditions: for effect on es-LAPase activity / reaction rate (FIG. 2): 167 μM Bestatin, 167 μM reduced Glutathione, 17 μM reduced thioredoxin, versus control es-LAPase; for Vmax of es-LAPase in presence of inhibitor / Km / Ki: Bestatin 167 μM, Glutathione 167 μM, Thioredoxin 17 μM; for Vmax of es-LAPase in presence of inhibitor: LAPase alone 36.8 ± 1.9; for mode of es-LAPase inhibition: from Vmax, Km and Ki analysis; for Km: LAPase alone 1.67 ± 0.14, read-out: Km of es-LAPase in presence of inhibitor; for Ki: read-out: Ki (inhibition constant)
Method: The kinetic assays were performed using a Spectronic Genesys 5 spectrophotometer from Milton Roy (Rochester, N.Y.). Absorbance was recorded every sixty seconds, over a period of 30 min. Enzyme kinetic assays were performed using 8.0×10^−2 U of es-LAPase in a final reaction volume of 600 μl and triplicate samples. […] A corresponding blank without es-LAPase was used as baseline. Both of the cuvettes were transferred to the spectrophotometer where the 1-leucine-β-naphthylmide solution was added last, marking time zero of the reaction.

[1] = tested on: primary parental breast carcinoma cells; test: LAPase release into cell supernatants following estrogen stimulation; type: cell-based, human
Method: Primary parental breast carcinoma cells were incubated with 100 nM 17-β-Estradiol for 24 hrs and cell media alone as a control. LAPase in supernatants was isolated using MAb 7B6(IgG1a)-protein-G-LAPase beads prepared by covalently cross-linking the monoclonal antibody. LAPase activity of the LAPase-immunoprecipitated supernatants was determined fluorometrically using leucine-β-naphthylamide as the substrate as described by Kuramochi et al. [Kuramochi, H. et al., (1987) J. Antibiot., 401605-1611].
During the same period, LAPase in cell supernatants of control cells remain unchanged. In addition, LAPase activity was determined in supernatants of primary parental cell lines immunoprecipitated with MAb 7B6(IgG1a)-protein-G-LAPase matrix bound antibodies. […] In addition, there was no effect of estrogen incubation on LAPase activity in purified preparations of this enzyme alone.

[2] = tested on: LAPase (purified preparations obtained from Sigma); test: LAPase activity of purified enzyme preparations incubated with 17-β-Estradiol; type: biochemical; conditions: 100 nM 17-β-Estradiol, 24 hrs
Method: Purified preparations of the enzyme obtained from Sigma were incubated with 100 nM 17-β-Estradiol for 24 hrs. LAPase activity was determined fluorometrically using leucine-β-naphthylamide as the substrate as described by Kuramochi et al. [Kuramochi, H. et al., (1987) J. Antibiot., 401605-1611].

Molecule | effect on es-LAPase activity / reaction rate (FIG. 2) (es-LAPase) | Vmax of es-LAPase in presence of inhibitor (es-LAPase) | mode of es-LAPase inhibition (es-LAPase) | Km (es-LAPase) | Ki (es-LAPase) | extracellular LAPase activity of estrogen stimulated cells ([1]; 100 nM, 24 hours, supernatants immunoprecipitated with MAb 7B6-protein-G matrix, control with media alone 6.4×10^−6 U/ml) | estrogen concentration of maximum release / optimal activation of LAPase ([1]; 24 hours of incubation, dose-dependent) | effect of estrogen incubation on LAPase activity in purified preparations of the enzyme alone [2]
CC(C)C[C@H](NC(=O)[C@@H](O)[C@H](N)Cc1ccccc1)C(=O)O [Bestatin] | clearly inhibits es-LAPase activity | 34.0 ± 3.9 10^−6 M/min | competitive |  |  |  |  | 
N[C@@H](CCC(=O)N[C@@H](CS)C(=O)NCC(=O)O)C(=O)O [Glutathione] | significant slower rates of reaction | 17.2 ± 1.5 10^−6 M/min | noncompetitive | 178 ± 25 µM | 1530 ± 400 nM |  |  | 
C[C@]12CC[C@@H]3c4ccc(O)cc4CC[C@H]3[C@@H]1CC[C@@H]2O [estrogen, 17-β-Estradiol] |  |  |  |  |  | 7.7×10^−5 U/ml | 100 nM | no effect
B1 | significant slower rates of reaction | 5.31 ± 0.02 10^−6 M/min | uncompetitive | 23.4 ± 0.6 µM | 3400 ± 580 nM |  |  | 
